Data published in PubChem BioAssay (NCI).
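Five compound concentrations were applied to cells in 96-well plates for 48 hours; endpoints were derived by simple linear interpolation of the resulting dose-response curve. The concentration for full growth arrest is given as TGI.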

Key:
Test in all cases: NCI-60 cell line screen, 48 h
[1] = test system: 786-0 renal
[2] = test system: A498 renal
[3] = test system: A549 NSCLC
[4] = test system: ACHN renal
[5] = test system: BT-549 breast
[6] = test system: CAKI-1 renal
[7] = test system: CCRF-CEM leukemia
[8] = test system: COLO 205 colon
[9] = test system: DU-145 prostate
[10] = test system: EKVX NSCLC
[11] = test system: HCC-2998 colon
[12] = test system: HCT-15 colon
[13] = test system: HOP-62 NSCLC
[14] = test system: HOP-92 NSCLC
[15] = test system: HS 578T breast
[16] = test system: HT29 colon
[17] = test system: IGROV1 ovarian
[18] = test system: K-562 leukemia
[19] = test system: KM12 colon
[20] = test system: M14 melanoma
[21] = test system: MALME-3M melanoma
[22] = test system: MCF7 breast
[23] = test system: MDA-MB-231 breast
[24] = test system: MDA-MB-435
[25] = test system: MDA-N
[26] = test system: MOLT-4 leukemia
[27] = test system: NCI-H226 lung
[28] = test system: NCI-H23 lung
[29] = test system: NCI-H460 lung
[30] = test system: NCI-H522 lung
[31] = test system: NCI/ADR-RES ovarian
[32] = test system: OVCAR-3 ovarian
[33] = test system: OVCAR-4 ovarian
[34] = test system: OVCAR-5 ovarian
[35] = test system: OVCAR-8 ovarian
[36] = test system: PC-3 prostate
[37] = test system: RPMI-8226 leukemia
[38] = test system: RXF 393 renal
[39] = test system: SF-539 CNS
[40] = test system: SK-MEL-2 melanoma
[41] = test system: SK-MEL-5 melanoma
[42] = test system: SK-OV-3 ovarian
[43] = test system: SN12C renal
[44] = test system: SNB-19 CNS
[45] = test system: SNB-75 CNS
[46] = test system: SR leukemia
[47] = test system: SW-620 colon
[48] = test system: TK-10 renal
[49] = test system: U251 CNS
[50] = test system: UACC-257 melanoma
[51] = test system: UACC-62 melanoma
[52] = test system: UO-31 renal
[53] = test system: HCT-116 colon
[54] = test system: HL-60(TB) leukemia
[55] = test system: LOX IMVI melanoma
[56] = test system: SF-268 CNS
[57] = test system: SF-295 CNS
[58] = test system: SK-MEL-28 melanoma
[59] = test system: T-47D breast

`C[n+]1c(-c2ccc(/C=N/Nc3ccnc(N/N=C/c4ccc(-c5cn6ccsc6[n+]5C)cc4)n3)cc2)cn2ccsc21` showed a TGI [1] of 46.6 µM, a TGI [2] of 65.3 µM and a TGI [3] of 91.2 µM. The TGI [4] was 78.6 µM, the TGI [5] was 78.5 µM and the TGI [6] was 66.6 µM. For the same compound, the TGI [7] was 44.2 µM, the TGI [8] was 87.9 µM and the TGI [9] was 82 µM. For the same compound, the TGI [10] was 45.7 µM, the TGI [11] was > 100 µM and the TGI [12] was > 100 µM. For the same compound, the TGI [13] was 80.2 µM, the TGI [14] was > 100 µM and the TGI [15] was > 100 µM. The TGI [16] was > 100 µM, the TGI [17] was > 100 µM and the TGI [18] was 39.7 µM. For the same compound, the TGI [19] was > 100 µM, the TGI [20] was 54.7 µM and the TGI [21] was > 100 µM. For the same compound, the TGI [22] was > 100 µM, the TGI [23] was > 100 µM and the TGI [24] was 40.1 µM. It also gave a TGI [25] of 38.6 µM, a TGI [26] of 64.9 µM and a TGI [27] of 60.6 µM. The TGI [28] was > 100 µM, the TGI [29] was 91.3 µM and the TGI [30] was > 100 µM. The TGI [31] was > 100 µM, the TGI [32] was > 100 µM and the TGI [33] was > 100 µM. The TGI [34] was > 100 µM, the TGI [35] was > 100 µM and the TGI [36] was 79.9 µM. The TGI [37] was > 100 µM, the TGI [38] was 51.9 µM and the TGI [39] was > 100 µM. The TGI [40] was 85.9 µM, the TGI [41] was 54.5 µM and the TGI [42] was > 100 µM. For the same compound, the TGI [43] was > 100 µM, the TGI [44] was > 100 µM and the TGI [45] was 68.3 µM. For the same compound, the TGI [46] was > 100 µM, the TGI [47] was > 100 µM and the TGI [48] was > 100 µM. For the same compound, the TGI [49] was > 100 µM, the TGI [50] was 76.2 µM and the TGI [51] was > 100 µM. For the same compound, the TGI [52] was > 100 µM.
`O=C1c2ccccc2C(=O)c2sc(Nc3ccccc3C(F)(F)F)nc21` showed a TGI [1] of 41 µM, a TGI [2] of 28.9 µM and a TGI [3] of 57.2 µM. For the same compound, the TGI [4] was 33 µM, the TGI [6] was 21.1 µM and the TGI [7] was > 100 µM. The TGI [8] was 27.8 µM, the TGI [9] was 31.7 µM and the TGI [10] was 55.1 µM. The TGI [11] was 35.2 µM, the TGI [53] was > 100 µM and the TGI [12] was > 100 µM. It also gave a TGI [54] of 17.7 µM, a TGI [13] of 28.2 µM and a TGI [14] of 23.7 µM. The TGI [15] was 48.2 µM, the TGI [17] was 34.5 µM and the TGI [18] was 14.8 µM. The TGI [19] was 27.4 µM, the TGI [55] was > 100 µM and the TGI [20] was 50.7 µM. It also gave a TGI [21] of 29.9 µM, a TGI [22] of 45.9 µM and a TGI [23] of 16.1 µM. For the same compound, the TGI [24] was 16 µM, the TGI [25] was 30.8 µM and the TGI [26] was 85.1 µM. The TGI [28] was 42.8 µM, the TGI [29] was 58.1 µM and the TGI [30] was > 100 µM. The TGI [32] was 27.5 µM, the TGI [34] was 44.6 µM and the TGI [36] was 26.1 µM. It also gave a TGI [37] of 74.4 µM, a TGI [38] of 39 µM and a TGI [56] of 30.1 µM. The TGI [57] was 32.2 µM, the TGI [39] was 45.8 µM and the TGI [40] was 25.2 µM. The TGI [58] was 30.3 µM, the TGI [41] was 22.7 µM and the TGI [42] was 30.8 µM. For the same compound, the TGI [43] was > 100 µM, the TGI [44] was 55.2 µM and the TGI [45] was 35.8 µM. The TGI [46] was > 100 µM, the TGI [47] was 24.4 µM and the TGI [59] was 44.5 µM. It also gave a TGI [48] of 35.7 µM, a TGI [49] of 22.4 µM and a TGI [50] of 32.4 µM. For the same compound, the TGI [51] was 29.7 µM and the TGI [52] was 25.2 µM.
With `CN(COC(=O)c1ccccc1)c1nc(N(C)COC(=O)c2ccccc2)nc(N(C)COC(=O)c2ccccc2)n1` the TGI [1] was 46.5 µM, the TGI [2] was 40.8 µM and the TGI [3] was > 100 µM. For the same compound, the TGI [4] was 78.7 µM, the TGI [6] was > 86.2 µM and the TGI [7] was > 100 µM. The TGI [8] was > 100 µM, the TGI [9] was > 100 µM and the TGI [10] was > 100 µM. The TGI [11] was > 100 µM, the TGI [53] was > 100 µM and the TGI [12] was > 100 µM. The TGI [54] was > 100 µM, the TGI [13] was 40.6 µM and the TGI [14] was 63.1 µM. The TGI [15] was > 100 µM, the TGI [16] was > 100 µM and the TGI [17] was > 100 µM. For the same compound, the TGI [18] was > 100 µM, the TGI [19] was > 100 µM and the TGI [55] was > 100 µM. For the same compound, the TGI [20] was > 100 µM, the TGI [21] was > 100 µM and the TGI [22] was > 100 µM. The TGI [23] was 53.4 µM, the TGI [24] was > 100 µM and the TGI [25] was > 100 µM. For the same compound, the TGI [26] was > 100 µM, the TGI [27] was > 100 µM and the TGI [28] was > 100 µM. The TGI [29] was > 100 µM, the TGI [30] was > 100 µM and the TGI [31] was > 100 µM. The TGI [32] was > 100 µM, the TGI [33] was > 100 µM and the TGI [34] was > 100 µM. For the same compound, the TGI [35] was > 100 µM, the TGI [36] was > 100 µM and the TGI [37] was > 100 µM. For the same compound, the TGI [38] was 26.2 µM, the TGI [56] was > 88.1 µM and the TGI [57] was > 84.9 µM. For the same compound, the TGI [39] was 38.9 µM, the TGI [58] was > 100 µM and the TGI [41] was > 100 µM. For the same compound, the TGI [42] was > 100 µM, the TGI [43] was > 100 µM and the TGI [44] was 51.7 µM. For the same compound, the TGI [45] was > 100 µM, the TGI [46] was > 100 µM and the TGI [47] was > 100 µM. For the same compound, the TGI [59] was > 100 µM, the TGI [48] was 59.2 µM and the TGI [49] was > 83.7 µM. The TGI [50] was > 100 µM, the TGI [51] was > 100 µM and the TGI [52] was > 100 µM.
In the case of `CCCCCCCCCCCCc1ccc(S(=O)(=O)O)cc1.[Zn+2]`, the TGI [1] is reported as > 100 µM, the TGI [2] is reported as 95.9 µM and the TGI [3] is reported as > 100 µM. The TGI [4] was > 100 µM, the TGI [6] was > 100 µM and the TGI [7] was > 100 µM. The TGI [8] was > 100 µM, the TGI [9] was > 100 µM and the TGI [10] was > 100 µM. For the same compound, the TGI [11] was > 100 µM, the TGI [53] was > 100 µM and the TGI [12] was > 100 µM. For the same compound, the TGI [54] was > 100 µM, the TGI [13] was > 100 µM and the TGI [14] was > 100 µM. For the same compound, the TGI [15] was > 100 µM, the TGI [16] was > 100 µM and the TGI [17] was 77.2 µM. The TGI [18] was > 100 µM, the TGI [19] was > 100 µM and the TGI [55] was > 100 µM. For the same compound, the TGI [20] was > 100 µM, the TGI [21] was > 100 µM and the TGI [22] was > 100 µM. The TGI [23] was > 100 µM, the TGI [24] was > 100 µM and the TGI [25] was > 100 µM. For the same compound, the TGI [26] was > 100 µM, the TGI [27] was > 100 µM and the TGI [28] was > 100 µM. The TGI [29] was > 100 µM, the TGI [31] was > 100 µM and the TGI [32] was > 100 µM. For the same compound, the TGI [33] was > 100 µM, the TGI [34] was > 100 µM and the TGI [35] was > 100 µM. The TGI [36] was > 100 µM, the TGI [37] was > 100 µM and the TGI [38] was > 100 µM. For the same compound, the TGI [56] was > 100 µM, the TGI [57] was > 100 µM and the TGI [39] was > 100 µM. The TGI [58] was > 100 µM, the TGI [41] was > 100 µM and the TGI [42] was > 100 µM. For the same compound, the TGI [43] was > 100 µM, the TGI [44] was > 100 µM and the TGI [45] was > 100 µM. The TGI [47] was > 100 µM, the TGI [59] was > 100 µM and the TGI [48] was > 100 µM. For the same compound, the TGI [49] was > 100 µM, the TGI [50] was > 100 µM and the TGI [51] was > 100 µM. For the same compound, the TGI [52] was > 100 µM.
